According to paper PMC11345829, “Discovery of Potent Isoquinolinequinone N-Oxides to Overcome Cancer Multidrug Resistance” (Journal of Medicinal Chemistry, 2024):
Where two headings read alike, the source gives them in different places.

How the values were obtained:
[1] = test system: NCI60 tumor cell line panel; test: NCI60 one-dose screen (10 μM), mean growth; type: cell-based, human; conditions: for activity at 10 µM: Homo sapiens; for activity at 10 µM / mean growth (%, 10 μM): 48 h, one dose 10 μM, mean cell growth of 60 tumor cell lines
Method: (§1) S2.1 NCI Screening Assay Experimental details
(§2) NCI Screening Assay Experimental: Cancer cell growth assays (NCI60 screening) 5,6 One-dose study: Tested compounds were initially solubilised in DMSO, diluted into RPMI 1640 and 5% fetal bovine serum/L-glutamine, and added to 96-well plates containing cell lines previously cultured for 24 h. After 48 h incubation, the media were removed, and the cells were fixed and stained with sulforhodamine B to determine overall percent growth/ total protein content. Unbound dye was removed with five washes of 1% acetic acid, and the plates were allowed to air dry. The dye was then resolubilised in Tris buffer, and the colorimetric absorbance was measured (515 nm). Growth inhibition was measured relative to the response generated from proliferating cells cultured under identical conditions for 48 h. […]

[2] = test system: MCF-7; test: NCI60 five-dose GI50; type: cell-based; conditions: Homo sapiens, MCF7, breast
Text: (§3) The concentration−response curve generated enables the determination of three criteria, GI50 (drug concentration at which 50% of cell growth is inhibited), total growth inhibition (TGI) and LC50 (drug concentration at which 50% of tumor cells are killed) which can be used to compare effectiveness against any compound tested in the screen since its inception.
as §1
(§4) NCI Screening Assay Experimental: Cancer cell growth assays (NCI60 screening) 5,6 One-dose study: Tested compounds were initially solubilised in DMSO, diluted into RPMI 1640 and 5% fetal bovine serum/L-glutamine, and added to 96-well plates containing cell lines previously cultured for 24 h. After 48 h incubation, the media were removed, and the cells were fixed and stained with sulforhodamine B to determine overall percent growth/ total protein content. Unbound dye was removed with five washes of 1% acetic acid, and the plates were allowed to air dry. The dye was then resolubilised in Tris buffer, and the colorimetric absorbance was measured (515 nm). Growth inhibition was measured relative to the response generated from proliferating cells cultured under identical conditions for 48 h. Data from one-dose experiments pertains to the percentage growth at […]
(§5) Five-dose study: Serial 5 × 10-fold dilution from an initial DMSO stock solution was performed, prior to incubation at each individual concentration (10 nM, 100 nM, 1 μM, 10 μM and 100 μM). Using seven absorbance measurements (time zero (Tz), control growth (C), and test growth in the presence of drug at the five concentration levels (Ti)), the percentage growth was calculated at each of the drug concentrations levels. Percentage growth inhibition was calculated as: [(Ti − Tz)/(C − Tz)] × 100 for concentrations for which Ti ≥ Tz, [(Ti − Tz)/Tz] × 100 for concentrations for which Ti < Tz. Three dose response parameters were calculated for each experimental agent. […]
(§6) was calculated from [(Ti − Tz)/(C − Tz)] × 100 = 50, which is the drug concentration resulting in a 50% reduction in the net protein increase (as measured by sulforhodamine B staining) in control cells during the drug incubation. The drug concentration resulting in total growth inhibition (TGI) was calculated from Ti = Tz. The LC50 (concentration of drug resulting in a 50% reduction in the measured protein at the end of the drug treatment as compared to that at the beginning) indicating a net loss of cells following treatment was calculated from [(Ti − Tz)/Tz] × 100 = −50. Values were calculated for each of these three parameters if the level of activity was reached; however, if the effect was not reached or was exceeded, the value for that parameter was expressed as greater or less than the maximum or minimum concentration tested.

[3] = test system: OVCAR-3; test: NCI60 five-dose GI50; type: cell-based; conditions: Homo sapiens, ovarian
Text: as §3, §1, §4, §5, §6

[4] = test system: UACC-62; test: NCI60 five-dose GI50; type: cell-based; conditions: Homo sapiens, melanoma
Text: as §3, §1, §4, §5, §6

[5] = test system: K-562; test: NCI60 five-dose GI50; type: cell-based; conditions: Homo sapiens, K562, five dose
Text: as §3, §1, §4, §5, §6

[6] = test system: NCI-ADR/RES; test: NCI60 five-dose GI50; type: cell-based; conditions: Homo sapiens, MDR ovarian
Text: as §3, §1, §4, §5, §6

[7] = test system: COLO-205; test: NCI60 five-dose GI50; type: cell-based; conditions: Homo sapiens, colon
Text: as §3, §1, §4, §5, §6

[8] = test system: LOX-IMVI; test: NCI60 five-dose GI50; type: cell-based; conditions: Homo sapiens, melanoma
Text: as §3, §1, §4, §5, §6

[9] = test system: OVCAR-8; test: NCI60 five-dose GI50; type: cell-based; conditions: Homo sapiens, ovarian
Text: as §3, §1
as §2, with “nm).” for “nm). Growth inhibition was measured relative to the response generated from proliferating cells cultured under identical conditions for 48 h.”
as §5, §6

[10] = test system: NCI60 tumor cell line panel; test: NCI60 five-dose screen, mean over panel; type: cell-based, human; conditions: five dose
Text: as §3, §1, §4, §5, §6

[11] = Homo sapiens, across 57-60 cell lines (number given per compound), read-out: Mean of GI50 as Log 10 Concentration (SD) (converted)
[12] = mean over 52 human tumor cell lines common to all analogues, read-out: mean GI50

SMILES	activity at 10 µM [1] [%]	GI50 [2] [nM]	GI50 [3] [nM]	GI50 [4] [nM]	GI50 ([5]; leukemia) [nM]	GI50 [6] [nM]	GI50 [7] [nM]	GI50 [8] [nM]	GI50 [9] [nM]	GI50 [10, 11] [nM]	GI50 [10, 12] [nM]	mean growth (%, 10 μM) [1] [%]	one-dose screen outcome ([1]; 10 μM)	GI50 [5] [nM]
COC(=O)c1c2c(c(C)[n+]([O-])c1C)C(=O)C(NCc1ccc(OC)cc1)=CC2=O [Compound 6]	19	1410	315	1720	2670	2420	839	2410	2780	2040	2120	–	–	–
COC(=O)c1c2c(c(C)[n+]([O-])c1C)C(=O)C=C(NCc1ccc(OC)cc1)C2=O [Compound 7]	-34	300	284	374	491	419	325	408	452	1530	900	-34	–	–
COC(=O)c1c2c(c(C)[n+]([O-])c1C)C(=O)C(NCc1cccc(OC)c1)=CC2=O [Compound 8]	23	1650	512	1700	2980	2360	1100	2360	2520	2210	2290	–	–	–
COC(=O)c1c2c(c(C)[n+]([O-])c1C)C(=O)C=C(NCc1cccc(OC)c1)C2=O [Compound 9]	-52	286	259	306	416	441	252	302	339	607	740	-52	–	–
COC(=O)c1c2c(c(C)[n+]([O-])c1C)C(=O)C(NCc1ccc(Cl)cc1)=CC2=O [Compound 10]	57	–	–	–	–	–	–	–	–	–	–	–	did not achieve sufficient growth inhibition	–
COC(=O)c1c2c(c(C)[n+]([O-])c1C)C(=O)C=C(NCc1ccc(Cl)cc1)C2=O [Compound 11]	-32	267	208	55	58	267	238	39	292	412	550	-32	–	< 150
COC(=O)c1c2c(c(C)[n+]([O-])c1C)C(=O)C(NCc1cccc(Cl)c1)=CC2=O [Compound 12]	12	1100	322	1240	2170	1640	388	1760	1520	1340	1480	–	–	–
COC(=O)c1c2c(c(C)[n+]([O-])c1C)C(=O)C=C(NCc1cccc(Cl)c1)C2=O [Compound 13]	-42	270	243	144	109	352	263	94	297	405	620	-42	–	< 150
COC(=O)c1c2c(c(C)[n+]([O-])c1C)C(=O)C(NCc1ccc(Br)cc1)=CC2=O [Compound 14]	18	1330	301	1170	2380	1970	659	1670	1830	1640	1800	–	–	–
COC(=O)c1c2c(c(C)[n+]([O-])c1C)C(=O)C=C(NCc1ccc(Br)cc1)C2=O [Compound 15]	-50	289	273	46	47	439	313	84	465	515	780	-50	–	< 150
COC(=O)c1c2c(c(C)[n+]([O-])c1C)C(=O)C(NCc1ccc(F)c(F)c1)=CC2=O [Compound 16]	11	1480	333	1530	2230	2300	673	1980	1960	1780	1910	–	–	–
COC(=O)c1c2c(c(C)[n+]([O-])c1C)C(=O)C=C(NCc1ccc(F)c(F)c1)C2=O [Compound 17]	-49	290	258	68	113	345	260	64	299	421	580	-49	–	< 150
COC(=O)c1c2c(c(C)[n+]([O-])c1C)C(=O)C(NCc1ccc(F)c(Cl)c1)=CC2=O [Compound 18]	4	1320	306	1380	2670	2080	588	2340	2380	1800	1510	–	–	–
COC(=O)c1c2c(c(C)[n+]([O-])c1C)C(=O)C=C(NCc1ccc(F)c(Cl)c1)C2=O [Compound 19]	-47	229	199	41	51	321	211	31	249	290	560	-47	–	< 150
